One assay deals with T1, ITK (Homo sapiens, UniProt Q08881).
T1 sequence (Q08881 1-620): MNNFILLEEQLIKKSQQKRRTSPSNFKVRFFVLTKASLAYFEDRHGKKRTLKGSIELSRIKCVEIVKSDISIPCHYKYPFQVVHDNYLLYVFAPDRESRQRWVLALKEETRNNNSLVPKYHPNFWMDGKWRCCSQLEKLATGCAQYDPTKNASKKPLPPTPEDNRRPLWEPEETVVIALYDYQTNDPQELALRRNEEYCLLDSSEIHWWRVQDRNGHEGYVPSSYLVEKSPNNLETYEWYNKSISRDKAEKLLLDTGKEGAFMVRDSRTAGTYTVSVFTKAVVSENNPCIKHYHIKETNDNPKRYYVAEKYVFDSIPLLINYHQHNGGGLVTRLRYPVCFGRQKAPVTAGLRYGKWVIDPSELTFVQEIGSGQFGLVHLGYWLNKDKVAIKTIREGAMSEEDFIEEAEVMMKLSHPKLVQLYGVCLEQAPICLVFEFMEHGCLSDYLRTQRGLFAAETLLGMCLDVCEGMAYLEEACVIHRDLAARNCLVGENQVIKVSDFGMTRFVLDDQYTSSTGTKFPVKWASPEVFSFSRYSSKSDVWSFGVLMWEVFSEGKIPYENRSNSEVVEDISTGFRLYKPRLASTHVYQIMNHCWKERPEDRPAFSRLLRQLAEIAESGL
Briefly: ITK kinase assay a) (polyGT, FRET). It is filed as biochemical. The following applies: polyGT substrate, 1.3 μM ATP. Here is the method:
For the determination of the kinase activity of ITK, the phosphorylation of polyGT is measured. In the kinase reaction, 106 pM ITK, 1.3 μM ATP and 20 nM polyGT are used. The reaction runs for 20 mins at RT and is then stopped by addition of EDTA (final concentration 60 mM).
The reaction buffer contains 50 mM TrisCL pH7.5, 10 mM MnCl2, 10% glycerine, 1 mM DTT, 0.1% Tween-20 and 0.1 mM Na3V04 and a protease inhibitor cocktail (“complete”, Roche diagnostics)
The measurement of the enzyme activity is effected by the determination of the phosphorylated substrates. The poly GT substrate used is biotinylated. The measurement is performed in a FRET-based assay, wherein an anti-phospho-tyrosine antibody recognises and binds the phosphorylated substrate poly GT.
The bound antibody is now in the spatial vicinity of a streptavidin-coupled fluorescence dye, which was bound to polyGt by biotin-streptavidin interaction. On excitation of the europium chelate on the phosphotyrosine antibody with […] UV light, light of the wavelength 620 nm is emitted, which in turn excites the dye XLent, which then emits light of longer wavelength (665 nm).
The detection reagents are added in 50 mM Hepes pH 7.0 with 0.1% BSA. […]
After addition of the detection reagents, the samples stand overnight at 4 degrees Celsius, in order to form the FRET-creating complexes. For example, an IC50=4 μM was measured for Example 1.7.

Another assay concerns the target T2, human Itk (Homo sapiens, UniProt Q08881).
T2 construct: kinase domain of the human Itk (amino acids 352-617); 6His (N); purchased Upstate (Dundee, UK); host or cells: baculovirus infected SF21 cells
T2 sequence (Q08881 352-617): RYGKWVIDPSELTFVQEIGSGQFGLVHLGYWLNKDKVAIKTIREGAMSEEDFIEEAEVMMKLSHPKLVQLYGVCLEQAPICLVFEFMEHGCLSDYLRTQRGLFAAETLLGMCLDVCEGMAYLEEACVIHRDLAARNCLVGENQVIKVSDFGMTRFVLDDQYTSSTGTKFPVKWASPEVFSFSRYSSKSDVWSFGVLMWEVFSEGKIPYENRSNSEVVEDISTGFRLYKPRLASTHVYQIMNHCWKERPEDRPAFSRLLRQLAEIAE
Kind of assay: ITK kinase assay b) (Itk HTRF assay). It counts as biochemical. To be noted: biotinylated myelin basic protein, 10 μM ATP. The source says:
Itk inhibitory activity of compounds of the present invention was quantified employing the Itk HTRF assay as described in the following paragraphs.
N-terminal 6His-tagged recombinant kinase domain of the human Itk (amino acids 352-617) expressed in baculovirus infected SF21 cells and purified using Ni^2+/NTA agarose was purchased form Upstate (Dundee, UK) and used as kinase. As substrate for the kinase reaction the biotinylated myelin basic protein was used which can be purchased form GE Healthcare (Freiburg i. Br., Germany). […]
The resulting mixture was incubated 1 h at 22° C. to allow the binding of the biotinylated phosphorylated substrate to the streptavidine-XLent and the PT66-Eu-Chelate. Subsequently the amount of phosphorylated substrate was evaluated by measurement of the resonance energy transfer from the PT66-Eu-Chelate to the streptavidine-XLent. Therefore, the fluorescence emissions at 620 nm and 665 nm after excitation at 350 nm was measured in a HTRF reader, e.g. a Rubystar (BMG Labtechnologies, Offenburg, Germany) or a Viewlux (Perkin-Elmer). […] The data were normalised (enzyme reaction without inhibitor=0% inhibition, all other assay components but no enzyme=100% inhibition) and IC50 values were calculated by a 4 parameter fit using an inhouse software.
For orientation: TR-FRET usually uses a lanthanide donor and a delayed reading to cut background.

Structures are written as SMILES. pIC50: −log10 of the molar value.

In the case of `CCOC(=O)N=S(C)(=O)c1ccc(Nc2ncc(-c3cccs3)c(N[C@H](CC)CO)n2)cc1Br` (mixture of isomers) [Example 1.7, (RS)—S-{2-bromo-4-[(4-{[(R)-1-(hydroxymethyl)propyl]amino}-5-(2-thienyl)pyrimidine-2-yl)amino]phenyl}-N-(ethoxycarbonyl)-S-methylsulfoximide], the pIC50 (commonly the negative decadic logarithm of the IC50, by convention in mol/L) at ITK is 5.40; against human Itk, 6.40.

The values above are taken from patent US7825128B2, “Sulfoximine-substituted pyrimidines, processes for production thereof and use thereof as drugs” (Bayer Schering Pharma AG, priority 2005, dated 2010).
